From patent US20030068611A1, “Methods for increasing microbial metabolic efficiency through regulation of oxidative stress” (priority 2001, published 2003)

Columns and labels:
Format in all cases: cell-based, E. coli
wild type = conditions: 10 microliters of 30% hydrogen peroxide or cumene hydroperoxide on 1/4 in filter disc on LB plate, 24 h at 37° C., typical numbers
oxyR2 = conditions: 10 microliters of 30% hydrogen peroxide or cumene hydroperoxide on 1/4 in filter disc on LB plate, 24 h at 37° C., typical numbers
MC4100/oxyR^+ = experiment: resistance to organic solvent, tetralin overlay on LB plate, wild type; conditions: wild type strain (oxyR^+); 5 mm depth tetralin overlay on LB agar; overnight at 37° C.
Protocol: (§1) Wild type MC4100/oxyR^+ and MC4100oxyR2 mutants were streaked onto the same LB plate made with a 80 mm diameter PYREX Petri dish (VWR International, West Chester, Pa.). Solvent tetralin (1,2,3,4-tetrahydronaphthalene) was then poured onto the LB agar surface to have a 5 mm depth of overlay. The plate was then covered with a Petri dish cover and sealed with a strip of parafilm (American National Can, Chicago, Ill.), and put into 37° C. incubator. After overnight culturing, tetralin was decanted and the plate was put into a fume hood for 30 min to allow evaporation of the remaining tetralin. A picture of the plate was taken with an Eagle Eye® II still imaging system (Stratagene, La Jolla, Calif.).

MC4100oxyR2 = experiment: resistance to organic solvent, tetralin overlay on LB plate, oxyR2 mutant; conditions: oxyR2 mutant strain; 5 mm depth tetralin overlay on LB agar; overnight at 37° C.
Protocol: as §1

Structure (SMILES)	Diameter of the zone killed (wild type)	Diameter of the zone killed (oxyR2)	colony growth under solvent overlay (MC4100/oxyR^+)	colony growth under solvent overlay (MC4100oxyR2)
OO [Hydrogen peroxide]	25 mm	13 mm	–	–
c1ccc2c(c1)CCCC2 [tetralin, 1,2,3,4-tetrahydronaphthalene]	–	–	No colony was observed	grew just fine
